Laboratory results reported in patent publication US8580829B2 (Boehringer Ingelheim International GmbH, priority 2010, dated 2013).
Read-outs that look alike come from different tables or passages of the source.

Key:
[1] = target: T1, recombinant human FLAP protein (Homo sapiens, UniProt P20292); test: FLAP binding assay (Scintillation Proximity Assay, displacement of [125I]L-691,831); details: recombinant human FLAP membranes, [125I]L-691,831 probe; read-out: FLAP SPA IC50
T1 construct: made in house; host or cells: Sf9 insect cells (100,000 x g membrane fraction)
T1 sequence (P20292 1-161): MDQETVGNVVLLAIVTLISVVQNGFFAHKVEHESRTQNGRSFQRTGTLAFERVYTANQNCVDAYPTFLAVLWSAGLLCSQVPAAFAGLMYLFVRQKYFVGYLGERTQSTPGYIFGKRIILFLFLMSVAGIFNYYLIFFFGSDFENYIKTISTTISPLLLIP
How it was run: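 Membranes came from Sf9 insect cells expressing recombinant human FLAP, collected as the 100,000×g pellet in Tris pH 7.5/MgCl2/EDTA buffer. 5 μg membrane protein was coupled to WGA SPA beads for 1 h.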

[2] = test system: synthesis of LTB4 in human whole blood; test: human whole blood LTB4 production inhibition assay; assay type: cell-based
How it was run: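 Whole-blood cellular format, heparinized human donors: 15 min compound pretreatment, then 30 min calcimycin stimulation (20 μM final), both at 37° C. Low-speed centrifugation yields plasma, in which LTB4 is read by homogeneous time-resolved fluorescence immunoassay.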

[3] = Homo sapiens, heparinized human whole blood, calcimycin 20 μM, read-out: hWB LTB4 IC50

| IC50 [1] [nM] | IC50 [2, 3] [nM] | Structure (SMILES) | IC50 ([2]; heparinized human whole blood, calcimycin 20 μM, read-out: hWB LTB4 IC50) [nM] | IC50 ([2]; Homo sapiens, read-out: hWB LTB4 IC50 (nM)) [nM] |
| --- | --- | --- | --- | --- |
| 78 | 1700 | CC(C)(O)Cc1nc(C2(c3ccc(-c4cnc(N)nc4)cc3)CCC2)no1 [Example 278, 1-(3-{1-[4-(2-Amino-pyrimidin-5-yl)-phenyl]-cyclobutyl}-[1,2,4]oxadiazol-5-yl)-2-methyl-propan-2-ol] | – | – |
| 17 | 1400 | CN1CCCCC1c1nc(C2(c3ccc(-c4cnc(N)nc4)cc3)CCC2)no1 (centres unmarked) [Example 280, 5-(4-{1-[5-(1-Methyl-piperidin-2-yl)-[1,2,4]oxadiazol-3-yl]-cyclobutyl}-phenyl)-pyrimidin-2-ylamine] | – | – |
| 26 | 1100 | Nc1ncc(-c2ccc(C3(c4noc([C@H]5CCCCN5)n4)CCC3)cc2)cn1 [Example 282, 5-{4-[1-((R)-5-Piperidin-2-yl-[1,2,4]oxadiazol-3-yl)-cyclobutyl]-phenyl}-pyrimidin-2-ylamine] | – | – |
| 60 | 1400 | Nc1ncc(-c2ccc(C3(c4noc(C5CCCCN5)n4)CCC3)cc2)cn1 (centres unmarked) [Example 283, 5-{4-[1-(5-Piperidin-2-yl-[1,2,4]oxadiazol-3-yl)-cyclobutyl]-phenyl}-pyrimidin-2-ylamine] | – | – |
| 18 | 120 | Nc1ncc(-c2ccc(C3(c4noc(N5CCC(O)CC5)n4)CCC3)cc2)cn1 [Example 284, 1-(3-{1-[4-(2-Amino-pyrimidin-5-yl)-phenyl]-cyclobutyl}-[1,2,4]oxadiazol-5-yl)-piperidin-4-ol] | – | – |
| 14 | 200 | Nc1ncc(-c2ccc(C3(c4noc(N5CCCC(CO)C5)n4)CCC3)cc2)cn1 (centres unmarked) [Example 286, [1-(3-{1-[4-(2-Amino-pyrimidin-5-yl)-phenyl]-cyclobutyl}-[1,2,4]oxadiazol-5-yl)-piperidin-3-yl]-methanol] | – | – |
| 36 | 200 | Nc1ncc(-c2ccc(C3(c4noc(N5CC[C@H](O)C5)n4)CCC3)cc2)cn1 [Example 287, (S)-1-(3-{1-[4-(2-Amino-pyrimidin-5-yl)-phenyl]-cyclobutyl}-[1,2,4]oxadiazol-5-yl)-pyrrolidin-3-ol] | – | – |
| 26 | 310 | Nc1ncc(-c2ccc(C3(c4noc(N5CCC[C@H]5CO)n4)CCC3)cc2)cn1 [Example 288, [(S)-1-(3-{1-[4-(2-Amino-pyrimidin-5-yl)-phenyl]-cyclobutyl}-[1,2,4]oxadiazol-5-yl)-pyrrolidin-2-yl]-methanol] | – | – |
| 31 | 500 | Nc1ncc(-c2ccc(C3(c4noc(N5CCC[C@@H]5CO)n4)CCC3)cc2)cn1 [Example 289, [(R)-1-(3-{1-[4-(2-Amino-pyrimidin-5-yl)-phenyl]-cyclobutyl}-[1,2,4]oxadiazol-5-yl)-pyrrolidin-2-yl]-methanol] | – | – |
| 35 | 230 | Nc1ncc(-c2ccc(C3(c4noc(N5CC[C@@H](O)C5)n4)CCC3)cc2)cn1 [Example 290, (R)-1-(3-{1-[4-(2-Amino-pyrimidin-5-yl)-phenyl]-cyclobutyl}-[1,2,4]oxadiazol-5-yl)-pyrrolidin-3-ol] | – | – |
| 19 | 210 | N#CC1CCN(c2nc(C3(c4ccc(-c5cnc(N)nc5)cc4)CCC3)no2)CC1 [Example 291, 1-(3-{1-[4-(2-Amino-pyrimidin-5-yl)-phenyl]-cyclobutyl}-[1,2,4]oxadiazol-5-yl)-piperidine-4-carbonitrile] | – | – |
| 22 | 330 | CN(CC1CCOCC1)c1nc(C2(c3ccc(-c4cnc(N)nc4)cc3)CCC2)no1 [Example 292, 5-[4-(1-{5-[Methyl-(tetrahydro-pyran-4-ylmethyl)-amino]-[1,2,4]oxadiazol-3-yl}-cyclobutyl)-phenyl]-pyrimidin-2-ylamine] | – | – |

The next lines start with the compound.

| Structure (SMILES) | IC50 [1] [nM] | IC50 [2, 3] [nM] | IC50 ([2]; heparinized human whole blood, calcimycin 20 μM, read-out: hWB LTB4 IC50) [nM] | IC50 ([2]; Homo sapiens, read-out: hWB LTB4 IC50 (nM)) [nM] |
| --- | --- | --- | --- | --- |
| Cn1cnc(-c2nc(C3(c4ccc(-c5cnc(N)cn5)cc4)CCC3)no2)c1 [Example 265] | 6.2 | 55 | – | – |
| Nc1ncc(-c2ccc(C3(c4noc(-c5csc(N6CCNCC6)n5)n4)CCC3)cc2)cn1 [Example 266, 5-(4-{1-[5-(2-Piperazin-1-yl-thiazol-4-yl)-[1,2,4]oxadiazol-3-yl]-cyclobutyl}-phenyl)-pyrimidin-2-ylamine] | 6.5 | 160 | – | – |
| CN(C)C(=O)Cn1cc(-c2nc(C3(c4ccc(-c5cnc(N)nc5)cc4)CC3)no2)cn1 [Example 268, 2-[4-(3-{1-[4-(2-Amino-pyrimidin-5-yl)-phenyl]-cyclopropyl}-[1,2,4]oxadiazol-5-yl)-pyrazol-1-yl]-N,N-dimethyl-acetamide] | 670 | > 5000 | – | – |
| Nc1ncc(-c2ccc(C3(c4noc(-c5csc(C6CCNCC6)n5)n4)CCC3)cc2)cn1 [Example 269] | 5.6 | – | 320 | – |
| CN(C)CCN(C)c1cnc(-c2nc(C3(c4ccc(-c5cnc(N)nc5)cc4)CCC3)no2)cn1 [Example 271, N-[5-(3-{1-[4-(2-Amino-pyrimidin-5-yl)-phenyl]-cyclobutyl}-[1,2,4]oxadiazol-5-yl)-pyrazin-2-yl]-N,N′,N′-trimethyl-ethane-1,2-diamine] | 5.3 | 44 | – | – |
| Cn1cc(-c2nc(C3(c4ccc(-c5cnc6c(c5)CCN6)cc4)CCC3)no2)cn1 [Example 272, 5-(4-{1-[5-(1-Methyl-1H-pyrazol-4-yl)-[1,2,4]oxadiazol-3-yl]-cyclobutyl}-phenyl)-2,3-dihydro-1H-pyrrolo[2,3-b]pyridine] | 3.8 | 79 | – | – |
| Cn1cc(-c2nc(C3(c4ccc(-c5cnc6[nH]ccc6c5)cc4)CCC3)no2)cn1 [Example 273, 5-(4-{1-[5-(1-Methyl-1H-pyrazol-4-yl)-[1,2,4]oxadiazol-3-yl]-cyclobutyl}-phenyl)-1H-pyrrolo[2,3-b]pyridine] | 3.9 | 79 | – | – |
| Cn1cc(-c2nc(C3(c4ccc(-c5cnc(N)c(CO)c5)cc4)CCC3)no2)cn1 [Example 274, [2-Amino-5-(4-{1-[5-(1-methyl-1H-pyrazol-4-yl)-[1,2,4]oxadiazol-3-yl]-cyclobutyl}-phenyl)-pyridin-3-yl]-methanol] | 8.8 | 220 | – | – |
| CN(C)C(=O)Cn1cc(-c2nc(C3(c4ccc(-c5cnc6[nH]ccc6n5)cc4)CCC3)no2)cn1 [Example 275, N,N-Dimethyl-2-[4-(3-{1-[4-(5H-pyrrolo[2,3-b]pyrazin-2-yl)-phenyl]-cyclobutyl}-[1,2,4]oxadiazol-5-yl)-pyrazol-1-yl]-acetamide] | 2.8 | 140 | – | – |
| CNc1ncc(-c2ccc(C3(c4noc(-c5cnn(CC(=O)N(C)C)c5)n4)CCC3)cc2)cn1 [Example 276, N,N-Dimethyl-2-[4-(3-{1-[4-(2-methylamino-pyrimidin-5-yl)-phenyl]-cyclobutyl}-[1,2,4]oxadiazol-5-yl)-pyrazol-1-yl]-acetamide] | 7 | 110 | – | – |
| Nc1ncc(-c2ccc(C3(c4noc(Cn5ccnc5)n4)CCC3)cc2)cn1 [Example 277, 5-{4-[1-(5-Imidazol-1-ylmethyl-[1,2,4]oxadiazol-3-yl)-cyclobutyl]-phenyl}-pyrimidin-2-ylamine] | 260 | 2800 | – | – |
| Cc1n[nH]c(C)c1Cc1nc(C2(c3ccc(-c4cnc(N)nc4)cc3)CCC2)no1 [Example 279] | 29 | > 5000 | – | – |
| CN1CCC(N(C)c2nc(C3(c4ccc(-c5cnc(N)nc5)cc4)CCC3)no2)CC1 [Example 293, 5-[4-(1-{5-[Methyl-(1-methyl-piperidin-4-yl)-amino]-[1,2,4]oxadiazol-3-yl}-cyclobutyl)-phenyl]-pyrimidin-2-ylamine] | 150 | – | – | 750 |
| CNc1ncc(-c2ccc(C3(c4noc(-c5cnn(C)c5)n4)CCC3)cc2)cn1 [Example 294, Methyl-[5-(4-{1-[5-(1-methyl-1H-pyrazol-4-yl)-[1,2,4]oxadiazol-3-yl]-cyclobutyl}-phenyl)-pyrimidin-2-yl]-amine] | 4.4 | 35 | – | – |
| Cc1cc(-c2cnc(N)nc2)ccc1C1(c2noc(-c3cnn(C)c3)n2)CCC1 [Example 295] | 12 | 100 | – | – |
| Nc1ccc(-c2ccc(C3(c4noc(-c5cnc(N6CCNCC6)cn5)n4)CCC3)cc2)cn1 [Example 296, 5-(4-{1-[5-(3,4,5,6-Tetrahydro-2H-[1,2′]bipyrazinyl-5′-yl)-[1,2,4]oxadiazol-3-yl]-cyclobutyl}-phenyl)-pyridin-2-ylamine] | 2.1 | 230 | – | – |
| CC(C)(O)Cn1cncc1-c1nc(C2(c3ccc(-c4cnc(N)nc4)cc3)CCC2)no1 [Example 298, 1-[5-(3-{1-[4-(2-Amino-pyrimidin-5-yl)-phenyl]-cyclobutyl}-[1,2,4]oxadiazol-5-yl)-imidazol-1-yl]-2-methyl-propan-2-ol] | 16 | 510 | – | – |
| Nc1cnc(-c2ccc(C3(c4noc(-c5cnn(C6COC6)c5)n4)CCC3)cc2)cn1 [Example 299, 5-(4-{1-[5-(1-Oxetan-3-yl-1H-pyrazol-4-yl)-[1,2,4]oxadiazol-3-yl]-cyclobutyl}-phenyl)-pyrazin-2-ylamine; compound with trifluoro-acetic acid] | 2.9 | 24 | – | – |
| CN(C)C(=O)Cn1cc(-c2nc(C3(c4ccc(-c5ccc(N)nc5)cc4)CCC3)no2)cn1 [Example 301, 2-[4-(3-{1-[4-(6-Amino-pyridin-3-yl)-phenyl]-cyclobutyl}-[1,2,4]oxadiazol-5-yl)-pyrazol-1-yl]-N,N-dimethyl-acetamide] | 6 | 140 | – | – |
